The nature of the data set: pKa values of the azo dyes. Format: physicochemical. The conditions noted are these: azo dye. The protocol:
Thus, in the hair dye composition of the present invention having pH (25° C.) of 7.5 to 12, almost 80% or more of these azo dyes are present in an anionic state where a proton(s) is dissociated.
In the case of `Cn1nccc1/N=N/c1ccc(O)c(Cl)c1` [Example A-3], the pKa is 7.5.

Turning to `NS(=O)(=O)c1ccc2nsc(/N=N/c3ccc(O)c(Cl)c3)c2c1` [Example A-2], the pKa was found to be 6. In turn, `CSc1nsc(/N=N/c2ccc(O)c(Cl)c2)n1` [Example A-1] yielded a pKa of 6.

The pKa is the negative logarithm of the acid dissociation constant. Lower therefore signals a group that gives up its proton readily.

The values above are taken from US10478389B2, “Hair-dye composition” (KAO CORPORATION, priority 2014, dated 2019).
